According to patent US7989469B2, “Certain chemical entities, compositions, and methods” (Cytokinetics, Incorporated, priority 2008, dated 2011):

These compounds were tested on rabbit skeletal muscle myofibril preparations (approximately 90% fast fibers) (assay: Activation of fast skeletal muscle fibers: enzymatic activity of myofibril preparations (PUMA assay system)). Conditions: detergent treated myofibrils at pCa25%, 500 μM ATP; cells marked †: Mean value.
Format: biochemical
Set-up: unit not given here
Excerpt: Fast fiber activators were identified by measuring the enzymatic activity of muscle myofibril preparations using the proprietary PUMA™ (see, e.g., U.S. Pat. Nos. 6,410,254, 6,743,599, 7,202,051, and 7,378,254) assay system. Myofibril preparations consisted of rabbit skeletal muscle (approximately 90% fast fibers) that had been treated with a detergen (triton X-100) to remove cellular membranes and then homogenized. This preparation retained all of the sarcomeric components in a native conformation and the enzymatic activity was still regulated by calcium. Compounds were tested using a myofibril suspension and a level of calcium sufficient to increase enzymatic activity of the myofibrils to 25% of their maximal rate (termed pCa25%). Enzymatic activity was tracked via a kinetic assay with a UV absorption readout. Hits were identified as compounds that increased the rate of enzymatic activity by greater than 40% at 40 μM. Myofibril preparations are calcium regulated and were screened at a level of calcium sufficient to produce a 25% increase in enzymatic rate. Detergent treated myofibrils were incubated with 500 μM ATP and 40 μM compound and a kinetic read of UV absorbance performed. Data was normalized to control wells.

Compound	AC1.4 Median
6-chloro-7-(4-chlorophenyl)-1-(ethylpropyl)imidazo[4,5-b]pyridin-2-ol	0.074†
CC[C@@H](CO)n1c(O)nc2ncc(Cl)c(-c3ccc(F)cc3)c21 [1-(1S)-1-ethyl-2-hydroxyethyl)-6-chloro-7-(4-fluorophenyl)imidazo[4,5-b]pyridin-2-ol]	0.363†
CC[C@@H](CO)n1c(O)nc2ncc(Cl)c(-c3ccc(Cl)s3)c21 [1-((1S)-1-ethyl-2-hydroxyethyl)-6-chloro-7-(5-chloro(2-thienyl))imidazo[4,5-b]pyridin-2-ol]	0.178†
4-[6-chloro-1-(ethylpropyl)-2-hydroxyimidazo[4,5-b]pyridin-7-yl]benzenecarbonitrile	0.405†
6-chloro-1-(ethylpropyl)-7-[4-(trifluoromethyl)phenyl]imidazo[4,5-b]pyridin-2-ol	0.274†

Same assay, conditions: detergent treated myofibrils at pCa25%, 500 μM ATP; median value (no †)

Compound	AC1.4 Median
CC[C@@H](C)n1c(O)nc2nccc(-n3cccn3)c21 [1-((1R)-1-methylpropyl)-7-pyrazolylimidazo[4,5-b]pyridin-2-ol]	18.6973
6-chloro-1-(ethylpropyl)-7-(1-methylpyrazol-3-yl)imidazo[4,5-b]pyridin-2-ol	1.7950
6-chloro-1-(ethylpropyl)-7-(1-methyl(1H-indazol-6-yl))imidazo[4,5-b]pyridin-2-ol	20.233
N-{4-[6-chloro-1-(ethylpropyl)-2-hydroxyimidazo[4,5-b]pyridin-7-yl]phenyl}acetamide	28.930
Cn1c(O)nc2ncc(Cl)c(-c3ccc(F)cc3)c21 [6-chloro-7-(4-fluorophenyl)-1-methylimidazo[4,5-b]pyridin-2-ol]	12.620
6-chloro-1-(ethylpropyl)-7-(4-pyridyl)imidazo[4,5-b]pyridin-2-ol	3.015
6-chloro-1-(methylethyl)-7-pyrazolylimidazo[4,5-b]pyridin-2-ol	2.0829
CC[C@@H](CO)n1c(O)nc2ncc(Cl)c(-n3cccn3)c21 [1-((1S)-1-ethyl-2-hydroxyethyl)-6-chloro-7-pyrazolylimidazo[4,5-b]pyridin-2-ol]	7.2481
6-chloro-1-(ethylpropyl)-7-(6-methyl(2-pyridyl))imidazo[4,5-b]pyridin-2-ol	4.048
3-[6-chloro-1-(ethylpropyl)-2-hydroxyimidazo[4,5-b]pyridin-7-yl]benzenecarbonitrile	3.336
CC[C@@H](CC(C)(C)O)n1c(O)nc2ncc(Cl)c(-c3ccc(F)cc3)c21 [1-((1S)-1-ethyl-3-hydroxy-3-methylbutyl)-6-chloro-7-(4-fluorophenyl)imidazo[4,5-b]pyridin-2-ol]	1.0092
CC[C@H](CN)n1c(O)nc2ncc(Cl)c(-c3ccc(F)cc3)c21 [1-((1R)-2-amino-1-ethylethyl)-6-chloro-7-(4-fluorophenyl)imidazo[4,5-b]pyridin-2-ol]	46.969
CC[C@@H](COC)n1c(O)nc2ncc(Cl)c(-c3ccc(F)cc3)c21 [1-[(1S)-1-(methoxymethyl)propyl]-6-chloro-7-(4-fluorophenyl)imidazo[4,5-b]pyridin-2-ol]	0.317
CC[C@H](c1nc2nc(O)[nH]c2c(-c2ccc(F)cc2)c1Cl)C(CO)CO [2-{(1S)-1-[6-chloro-7-(4-fluorophenyl)-2-hydroxyimidazo[4,5-b]pyridinyl]propyl}propane-1,3-diol]	4.6812
CC[C@@H](CO)n1c(O)nc2ncc(Cl)c(-c3ccc(C)cc3)c21 [1-((1S)-1-ethyl-2-hydroxyethyl)-6-chloro-7-(4-methylphenyl)imidazo[4,5-b]pyridin-2-ol]	2.194
{4-[6-chloro-1-(ethylpropyl)-2-hydroxyimidazo[4,5-b]pyridin-7-yl]phenyl}(methylsulfonyl)amine	26.368
6-chloro-1-(ethylpropyl)-7-pyrazolylimidazo[4,5-b]pyridin-2-ol	0.3235
C[C@@H](CO)n1c(O)nc2ncc(Cl)c(-c3ccc(Cl)cc3)c21 [1-((1S)-2-hydroxy-isopropyl)-6-chloro-7-(4-chlorophenyl)imidazo[4,5-b]pyridin-2-ol]	1.260
6-chloro-1-(ethylpropyl)-7-(3-fluoro-4-methoxyphenyl)imidazo[4,5-b]pyridin-2-ol	2.102
CC[C@@H](CO)n1c(O)nc2ncc(Cl)c(-c3ccccc3)c21 [1-((1S)-1-ethyl-2-hydroxyethyl)-6-chloro-7-phenylimidazo[4,5-b]pyridin-2-ol]	1.474
6-chloro-7-(2-chloro-4-methoxyphenyl)-1-(ethylpropyl)imidazo[4,5-b]pyridin-2-ol	1.898
6-chloro-1-(ethylpropyl)-7-(5-methylpyrimidin-2-yl)imidazo[4,5-b]pyridin-2-ol	18.694
CC[C@@H](CO)n1c(O)nc2ncc(Cl)c(-c3cccs3)c21 [1-((1S)-1-ethyl-2-hydroxyethyl)-6-chloro-7-(2-thienyl)imidazo[4,5-b]pyridin-2-ol]	1.349

Compound	AC1.4 Median
methyl 3-[6-chloro-1-(ethylpropyl)-2-hydroxyimidazo[4,5-b]pyridin-7-yl]benzoate	9.682
6-chloro-1-(ethylpropyl)-7-(3-fluoro(4-pyridyl))imidazo[4,5-b]pyridin-2-ol	1.709
CC[C@H](COP(=O)(O)O)c1nc2nc(O)[nH]c2c(-c2ccc(F)cc2)c1Cl [(2S)-2-[6-chloro-7-(4-fluorophenyl)-2-hydroxyimidazo[4,5-b]pyridinyl]butyl dihydrogen phosphate]	31.644
6-chloro-1-(ethylpropyl)-7-[3-(trifluoromethoxy)phenyl]imidazo[4,5-b]pyridin-2-ol	2.369
6-chloro-1-(ethylpropyl)-7-[4-(methoxymethyl)phenyl]imidazo[4,5-b]pyridin-2-ol	34.746
6-chloro-1-(ethylpropyl)-7-(3-methoxyphenyl)imidazo[4,5-b]pyridin-2-ol	2.001
6-chloro-1-(ethylpropyl)-7-[3-(methoxymethyl)phenyl]imidazo[4,5-b]pyridin-2-ol	8.109
CC[C@@H](CO)n1c(O)nc2ncc(Cl)c(-c3ccc(C#N)cc3)c21 [4-[1-((1S)-1-ethyl-2-hydroxyethyl)-6-chloro-2-hydroxyimidazo[4,5-b]pyridin-7-yl]benzenecarbonitrile]	3.249
6-chloro-1-(ethylpropyl)-7-[4-(trifluoromethoxy)phenyl]imidazo[4,5-b]pyridin-2-ol	0.781
(tert-butoxy)-N-{4-[6-chloro-1-(ethylpropyl)-2-hydroxyimidazo[4,5-b]pyridin-7-yl]phenyl}-N-methylcarboxamide	42.343
6-chloro-1-(ethylpropyl)-7-(2-fluoro-4-methoxyphenyl)imidazo[4,5-b]pyridin-2-ol	0.942
6-chloro-1-(ethylpropyl)-7-[2-(trifluoromethyl)(4-pyridyl)]imidazo[4,5-b]pyridin-2-ol	3.590
6-chloro-1-(ethylpropyl)-7-(2-pyridyl)imidazo[4,5-b]pyridin-2-ol	1.616
6-chloro-1-(ethylpropyl)-7-(5-methyl(2-pyridyl))imidazo[4,5-b]pyridin-2-ol	5.708
CC[C@H](CCO)n1c(O)nc2ncc(Cl)c(-c3ccc(F)cc3)c21 [1-((1R)-1-ethyl-3-hydroxypropyl)-6-chloro-7-(4-fluorophenyl)imidazo[4,5-b]pyridin-2-ol]	2.547
CC[C@H](n1c(O)nc2ncc(Cl)c(-c3ccc(F)cn3)c21)C(C)(C)O [1-((1S)-1-ethyl-2-hydroxy-2-methylpropyl)-6-chloro-7-(5-fluoro(2-pyridyl))imidazo[4,5-b]pyridin-2-ol]	6.420
CC[C@@H](COC)n1c(O)nc2ncc(Cl)c(-c3ccc(F)cn3)c21 [1-[(1S)-1-(methoxymethyl)propyl]-6-chloro-7-(5-fluoro(2-pyridyl))imidazo[4,5-b]pyridin-2-ol]	3.771
6-chloro-1-(ethylpropyl)-7-(4-methyl(2-pyridyl))imidazo[4,5-b]pyridin-2-ol	11.301
CCC(CC)n1c(O)nc2ncc(Cl)c(-c3cccc(S(C)(=O)=O)c3)c21 [1-[6-chloro-1-(ethylpropyl)-2-hydroxyimidazo[4,5-b]pyridin-7-yl]-3-(methylsulfonyl)benzene]	38.633
6-chloro-7-(5-fluoro(2-pyridyl))-1-(methylethyl)imidazo[4,5-b]pyridin-2-ol	2.323
6-chloro-1-(ethylpropyl)-7-(2-methyl(1,2,3,4-tetraazol-5-yl))imidazo[4,5-b]pyridin-2-ol	6.404
CC[C@H](CO)n1c(O)nc2ncc(Cl)c(-c3ccc(F)cn3)c21 [1-((1R)-1-ethyl-2-hydroxyethyl)-6-chloro-7-(5-fluoro(2-pyridyl))imidazo[4,5-b]pyridin-2-ol]	7.658
CC[C@@H](CO)n1c(O)nc2ncc(Cl)c(-c3ccsc3)c21 [1-((1S)-1-ethyl-2-hydroxyethyl)-6-chloro-7-(3-thienyl)imidazo[4,5-b]pyridin-2-ol]	0.827
